Experimental findings from US10336739B2, “4-hydroxy-3-(heteroaryl)pyridine-2-one APJ agonists” (BRISTOL-MYERS SQUIBB COMPANY, priority 2015, dated 2019) are described below.

Structures are written as SMILES.

The target in the first assay is human APJ receptor (Homo sapiens (Human), UniProt P35414). Nature of the assay: Intracellular cAMP accumulation assay (APJ hcAMP, HTRF). To be noted: HEK293 cells stably expressing human APJ receptor; inhibition of forskolin-mediated cAMP production; read-out: Human APJ cAMP EC50 Potency range. It is filed as cell-based. An outline of the steps: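 HEK293 cells stably expressing human APJ, 5,000 per well, exposed to compound with […] IBMX and 2 μM forskolin for 30 minutes at room temperature. cAMP measured by HTRF after lysis and 60 min detection incubation. EC50 from sigmoidal variable-slope fits of inhibition of forskolin-induced cAMP, quantified against a cAMP standard curve.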
human APJ receptor, sequence (P35414 whole entry): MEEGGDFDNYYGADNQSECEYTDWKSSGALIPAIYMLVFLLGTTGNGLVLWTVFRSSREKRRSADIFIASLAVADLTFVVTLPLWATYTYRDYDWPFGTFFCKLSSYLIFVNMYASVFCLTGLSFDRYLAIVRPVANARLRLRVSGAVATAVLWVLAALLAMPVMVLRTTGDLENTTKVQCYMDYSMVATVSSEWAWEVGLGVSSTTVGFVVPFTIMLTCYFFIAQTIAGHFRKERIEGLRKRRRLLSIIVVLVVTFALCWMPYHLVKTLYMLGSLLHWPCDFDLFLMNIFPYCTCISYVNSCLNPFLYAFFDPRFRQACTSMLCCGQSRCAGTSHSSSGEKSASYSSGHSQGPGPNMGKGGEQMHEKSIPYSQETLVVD
On the technique in general: cAMP levels reflect the balance of adenylyl cyclase and phosphodiesterase activity.
On to `CCCCc1nc(O)c(-c2nnc(CN(C)C(=O)Cc3ccccc3)o2)c(O)c1-c1c(OC)cccc1OC` [Example 155, N-({5-[6-butyl-5-(2,6-dimethoxyphenyl)-2,4-dihydroxypyridin-3-yl]-1,3,4-oxadiazol-2-yl}methyl)-N-methyl-2-phenylacetamide], for which the EC50 – broadly, the concentration needed to bring the measured effect to its halfway point – was in the range of 0.01 to 10 nM. With `CCCCc1nc(O)c(-c2nnc(Cc3ccc(Cl)cc3)o2)c(O)c1-c1c(OC)ccc(F)c1OC` (single isomer, unassigned) [Example 219, 6-butyl-3-{5-[(4-chlorophenyl)methyl]-1,3,4-oxadiazol-2-yl}-5-(3-fluoro-2,6-dimethoxyphenyl)pyridine-2,4-diol], the concentration for a half-maximal effect (EC50) was in the range of 0.01 to 10 nM.

The same assay, now with this note: HEK293 cells stably expressing human APJ receptor; inhibition of forskolin-mediated cAMP production; read-out: hAPJ cAMP EC50 Potency range.
In the case of `CCCCc1nc(O)c(-c2nnc(C(F)(F)c3ccccc3)o2)c(O)c1-c1c(OC)cccc1OC` [Example 24, 6-butyl-3-{5-[difluoro(phenyl)methyl]-1,3,4-oxadiazol-2-yl}-5-(2,6-dimethoxyphenyl) pyridine-2,4-diol], the EC50 was in the range of 10 to 100 nM.

In the case of `CCOCc1nc(O)c(-c2nnc(Cc3ccc(F)cn3)o2)c(O)c1-c1c(OC)cccc1OC` [Example 124, 5-(2,6-dimethoxyphenyl)-6-(ethoxymethyl)-3-{5-[(5-fluoropyridin-2-yl)methyl]-1,3,4-oxadiazol-2-yl}pyridine-2,4-diol], the EC50 was 0.01 to 10 nM. Take `CCCCc1nc(O)c(-c2nnc(Cc3cccc(C(F)(F)F)c3)o2)c(O)c1-c1c(OC)cccc1OC` [Example 73, 6-butyl-5-(2,6-dimethoxyphenyl)-3-(5-{[3-(trifluoromethyl)phenyl]methyl}-1,3,4-oxadiazol-2-yl)pyridine-2,4-diol]: the EC50 fell in the range of 10 to 100 nM. On the same count and under the same terms, as for `CCCCc1nc(O)c(-c2nnc(C(C)(C)c3ccc(Cl)c(Cl)c3)o2)c(O)c1-c1c(OC)cccc1OC` [Example 62, 6-butyl-3-{5-[2-(3,4-dichlorophenyl)propan-2-yl]-1,3,4-oxadiazol-2-yl}-5-(2,6-dimethoxyphenyl) pyridine-2,4-diol], the figure is 0.01 to 10 nM. Turning to `CCCCc1nc(O)c(-c2nnc(-c3cc(C)[nH]n3)o2)c(O)c1-c1c(OC)cccc1OC` [Example 19, 6-butyl-5-(2,6-dimethoxyphenyl)-3-[5-(5-methyl-1H-pyrazol-3-yl)-1,3,4-oxadiazol-2-yl]pyridine-2,4-diol], the EC50 lay within 100 to 300 nM. Same read-out and setting: the same measure for `CCCCc1nc(O)c(-c2nnc(Cc3noc4ccccc34)o2)c(O)c1-c1c(CC)cccc1CC` [Example 226, 3-[5-(1,2-benzoxazol-3-ylmethyl)-1,3,4-oxadiazol-2-yl]-6-butyl-5-(2,6-diethylphenyl) pyridine-2,4-diol]: 0.01 to 10 nM; for `CCCCc1nc(O)c(-c2nnc(Cc3noc4ccccc34)o2)c(O)c1-c1c(OC)cc(C)cc1OC` [Example 26, 3-[5-(1,2-benzoxazol-3-ylmethyl)-1,3,4-oxadiazol-2-yl]-6-butyl-5-(2,6-dimethoxy-4-methylphenyl) pyridine-2,4-diol]: 0.01 to 10 nM.

Consider `CCCCc1nc(O)c(-c2nnc(Cc3ccc(F)c(C(F)(F)F)c3)o2)c(O)c1-c1c(OC)cccc1OC` [Example 34, 6-butyl-5-(2,6-dimethoxyphenyl)-3-(5-{[4-fluoro-3-(trifluoromethyl)phenyl]methyl}-1,3,4-oxadiazol-2-yl)pyridine-2,4-diol], for which the EC50 lay within 10 to 100 nM. `CCCCc1nc(O)c(-c2nnc(CC(=O)NCc3ccccn3)o2)c(O)c1-c1c(OC)cccc1OC` [Example 178, 2-{5-[6-butyl-5-(2,6-dimethoxyphenyl)-2,4-dihydroxypyridin-3-yl]-1,3,4-oxadiazol-2-yl}-N-(pyridin-2-ylmethyl)acetamide]: the EC50 was 10 to 100 nM. For the molecule `CCCCc1nc(O)c(-c2nnc(CC(=O)NCC(F)(F)F)o2)c(O)c1-c1c(OC)cccc1OC` [Example 192, 2-{5-[6-butyl-5-(2,6-dimethoxyphenyl)-2,4-dihydroxypyridin-3-yl]-1,3,4-oxadiazol-2-yl}-N-(2,2,2-trifluoroethyl) acetamide], the half-maximal effective concentration (EC50) was 0.01 to 10 nM.
